Reference: publication PMC9986244, “Connection between MHC class II binding and aggregation propensity: The antigenic peptide 10 of Paracoccidioides brasiliensis as a benchmark study” (Computational and Structural Biotechnology Journal, 2023)
“Also recorded” adds a separate entry of the source.

Assays:
[1] = In vitro aggregation, Thioflavin-T (ThT) binding; assay type: physicochemical; conditions: 20 μM peptide in PBS pH 7.4, 37 °C, 18 h; ThT 50 μM, excitation 450 nm, emission 485 nm; in words, Fig. 6
Procedure: (§1) For in-vitro aggregation assays, P10 and a total of ten selected P10 variants were purchased from Genscript with purity above 95 % and diluted in DMSO (Sigma-Aldrich code D8418) 100 % to a final concentration of 5 mM (stock solution) and kept at −20 °C for storage.
(§2) P10 and its variants stock solutions were diluted in PBS at 20 μM; pH 7.4 at 37 °C for 18 h under agitation. To measure light scattering (LS), samples were excited at 320 nm while emission was collected at 320 nm in the spectrofluorometer Jasco FP8200 (Jasco Corp., Tokyo, Japan). Aliquots of the aggregation suspension were diluted in the presence of Thioflavin-T (Sigma-Aldrich code T3516) (ThT; 50 μM and peptide 20 μM), a specific fluorescent probe for AF. ThT fluorescence emission was measured at 485 nm by exciting the samples at 450 nm. Congo red (Sigma-Aldrich code C6767) binding assays, another amyloid specific probe, were performed according to Palhano [47]. The samples (50 μL) were centrifuged at 17,000 X g for 30 min, and the pellet was incubated with 10 µM Congo red solution for 5 min. The absorbance was measured at 540 and 477 nm and the fraction of bound Congo red was determined by the following formula [mol of bound Congo red/mol of protein = OD540/25,295 – OD477/46,306].

[2] = In vitro aggregation, Congo red (CR) binding; assay type: physicochemical; conditions: 20 μM peptide in PBS pH 7.4, 37 °C, 18 h; pellet (17,000 X g, 30 min) with 10 µM Congo red 5 min, absorbance 540 and 477 nm; in words, Fig. 6
Procedure: as §1, §2

[3] = Transmission electron microscopy (TEM) of aggregates; assay type: physicochemical; conditions: peptide in PBS, 18 h, 37 °C; negative staining 2 % uranyl acetate; 20 μM (Fig. 7 legend), 100 µM (method)
Procedure: […] of each peptide suspension (100 µM) was absorbed onto 200-mesh carbon-coated copper grids (Pelco, Ref: 01800 F) for 5 min and then blotted to remove excess material. Negative staining was performed by adding […] of 2 % (w/v) uranyl acetate. Samples were dried on air for 3 min. The grids were imaged with a Jeol 1200 electron microscope (Jeol Ltd.) operating at a 60 kV acceleration voltage.

[4] = depends on peptide concentration, pH and temperature; cited from earlier work
Description: In addition to peptide binding affinity, other properties to evaluate are their solubility and aggregation propensity. […] Many proteins and peptides in solution can aggregate into amyloid fibrils (AF), a type of aggregate that can accumulate in organs and tissues causing diseases such as Parkinson’s and Alzheimer’s. […] Here, we describe an additional layer of information that could be used to predict good and poor epitope-binders to MHC-II, which is its aggregation propensity. According to the Aggregation hypothesis of antigen selection as enunciated by Forsdyke, [54], homoaggregation of antigen ...

[5] = previously shown; cited from earlier work
Description: Since P10 aggregates into AF in vitro, we investigated whether the peptides probed with ProImmune REVEAL® binding assays were able to form amyloid aggregates as well. To address this question, we initially submitted the ten selected sequences of the P10 variants (V1, V3, V5, V6, V7, V10, V11, V14, V15 and V16) to Cordax, an amyloid structure predictor able to model a given structure into steric zippers common to amyloids. For most of these P10 variants, regardless of their SF, at least two types of consensus steric zippers encompassing the sequence ^7(H)TLAIR(Y)^13 were predicted. The exceptio ...

[6] = system: Paracoccidioides brasiliensis; conditions: immunization, compared with full gp43; cited from earlier work
Description: (§3) In addition to peptide binding affinity, other properties to evaluate are their solubility and aggregation propensity. […] Many proteins and peptides in solution can aggregate into amyloid fibrils (AF), a type of aggregate that can accumulate in organs and tissues causing diseases such as Parkinson’s and Alzheimer’s. This is the case of P10 ([…]), ...

MHC-II alleles = conditions: cited from earlier work
Description: as §3

[7] = In vitro aggregation, light scattering (LS); assay type: physicochemical; conditions: 20 μM peptide in PBS pH 7.4 from 5 mM DMSO stock, 37 °C, 18 h under agitation; excitation and emission 320 nm; in words, Fig. 6
Procedure: as §1, §2

| Sequence | Thioflavin T (ThT) binding [1] | Congo red (CR) binding [2] | Morphology of aggregates by TEM [3] | Aggregation in solution [4] | Regions able to form steric zippers [5] | Protection of mice against Pb infection [6] | Binding to a set of MHC-II alleles (MHC-II alleles) | Light scattering (LS) [7] |
| --- | --- | --- | --- | --- | --- | --- | --- | --- |
| QGLKAIHTLAIRYAN [Peptide V10] | did not bind ThT | bind CR | formed mature amyloid fibrils |  |  |  |  |  |
| QTLIAIHTLAIRYAN [Peptide P10] |  |  |  | aggregate into insoluble AF; also recorded: more prominent at neutral pH than at acidic pH | ^2TLIAIH^7, ^3LIAIHT^8, ^4IAIHTL^9, ^7HTLAIR^12 and ^8TLAIRY^13 | protecting mice against Pb infection as effectively as using the full gp43 | nanomolar |  |
| QTLLDIHTLAIRYAN [Peptide V1] | behaved like P10 | behaved like P10 | amyloid fibrils were observed |  |  |  |  | behaved like P10 |
| QTLTAIHTLAIRYAN [Peptide V6] | did not bind ThT | bind CR | formed mature amyloid fibrils |  |  |  |  |  |
| QTYHAIHTLAIRYAN [Peptide V14] |  |  | ribbon-like appearance |  |  |  |  |  |
